{"source": "the NIST ThermoML archive (doi:10.1016/j.tca.2011.10.030)", "key": {"[1]": {"details": "101 kPa, Liquid; for viscosity: Capillary tube (Ostwald / Ubbelohde) method; for mass density: Vibrating tube method"}, "[2]": {"assay": "xn = mol fraction of the nth substance listed", "details": "101 kPa, Liquid, x2 = 0; for viscosity: Capillary tube (Ostwald / Ubbelohde) method; for mass density: Vibrating tube method"}}, "note": "Numbers after ± are expanded uncertainties."}
{"smiles": "CCCCCCn1cc[n+](C)c1.F[B-](F)(F)F", "note": "[1-hexyl-3-methylimidazolium tetrafluoroborate]", "values": [{"measurement": "viscosity", "setting": "[1]; 293.15 K", "value": 232.65, "unit": "mPa·s"}, {"measurement": "mass density", "setting": "[1]; 293.15 K", "value": "1149.24 ± 5.1", "unit": "kg/m3"}, {"measurement": "viscosity", "setting": "[1]; 303.15 K", "value": 130.02, "unit": "mPa·s"}, {"measurement": "mass density", "setting": "[1]; 303.15 K", "value": "1142.48 ± 5.1", "unit": "kg/m3"}, {"measurement": "viscosity", "setting": "[1]; 313.15 K", "value": 78.24, "unit": "mPa·s"}, {"measurement": "mass density", "setting": "[1]; 313.15 K", "value": "1135.79 ± 5.1", "unit": "kg/m3"}, {"measurement": "viscosity", "setting": "[1]; 323.15 K", "value": 50.3, "unit": "mPa·s"}, {"measurement": "mass density", "setting": "[1]; 323.15 K", "value": "1129.08 ± 5.1", "unit": "kg/m3"}, {"measurement": "viscosity", "setting": "[1]; 333.15 K", "value": 34.02, "unit": "mPa·s"}, {"measurement": "mass density", "setting": "[1]; 333.15 K", "value": "1122.37 ± 5.1", "unit": "kg/m3"}]}
{"smiles": "CCCO", "note": "[propan-1-ol] + CCCCCCn1cc[n+](C)c1.F[B-](F)(F)F", "values": [{"measurement": "viscosity", "setting": "[2]; 293.15 K", "value": "2.204 ± 0.02", "unit": "mPa·s"}, {"measurement": "mass density", "setting": "[2]; 293.15 K", "value": "809.62 ± 5", "unit": "kg/m3"}, {"measurement": "viscosity", "setting": "[2]; 303.15 K", "value": "1.615 ± 0.015", "unit": "mPa·s"}, {"measurement": "mass density", "setting": "[2]; 303.15 K", "value": "801.43 ± 5", "unit": "kg/m3"}, {"measurement": "viscosity", "setting": "[2]; 313.15 K", "value": "1.188 ± 0.011", "unit": "mPa·s"}, {"measurement": "mass density", "setting": "[2]; 313.15 K", "value": "793.09 ± 5", "unit": "kg/m3"}, {"measurement": "viscosity", "setting": "[2]; 323.15 K", "value": "0.8796 ± 0.0084", "unit": "mPa·s"}, {"measurement": "mass density", "setting": "[2]; 323.15 K", "value": "784.54 ± 5", "unit": "kg/m3"}, {"measurement": "viscosity", "setting": "[2]; 333.15 K", "value": "0.5985 ± 0.006", "unit": "mPa·s"}, {"measurement": "mass density", "setting": "[2]; 333.15 K", "value": "775.74 ± 5", "unit": "kg/m3"}]}
{"smiles": "CCCO", "note": "[propan-1-ol]", "values": [{"measurement": "viscosity", "setting": "[1]; 293.15 K", "value": "2.204 ± 0.02", "unit": "mPa·s"}, {"measurement": "mass density", "setting": "[1]; 293.15 K", "value": "809.62 ± 5", "unit": "kg/m3"}, {"measurement": "viscosity", "setting": "[1]; 303.15 K", "value": "1.615 ± 0.015", "unit": "mPa·s"}, {"measurement": "mass density", "setting": "[1]; 303.15 K", "value": "801.43 ± 5", "unit": "kg/m3"}, {"measurement": "viscosity", "setting": "[1]; 313.15 K", "value": "1.188 ± 0.011", "unit": "mPa·s"}, {"measurement": "mass density", "setting": "[1]; 313.15 K", "value": "793.09 ± 5", "unit": "kg/m3"}, {"measurement": "viscosity", "setting": "[1]; 323.15 K", "value": "0.8796 ± 0.0084", "unit": "mPa·s"}, {"measurement": "mass density", "setting": "[1]; 323.15 K", "value": "784.54 ± 5", "unit": "kg/m3"}, {"measurement": "mass density", "setting": "[1]; 333.15 K", "value": "775.74 ± 5", "unit": "kg/m3"}]}
